The values below come from US9914730B2, “Azaquinazoline inhibitors of Atypical protein Kinase C” (Ignyta, Inc., priority 2012, dated 2018).

Structures are written as SMILES.

The test has as its target T1, full-length human PKCι (Homo sapiens, UniProt P41743).
T1 construct: Recombinant, full-length human PKCι expressed in Sf21 insect cells is also commercially available; purchased; host or cells: Sf21 insect cells
T1 sequence (P41743 1-596): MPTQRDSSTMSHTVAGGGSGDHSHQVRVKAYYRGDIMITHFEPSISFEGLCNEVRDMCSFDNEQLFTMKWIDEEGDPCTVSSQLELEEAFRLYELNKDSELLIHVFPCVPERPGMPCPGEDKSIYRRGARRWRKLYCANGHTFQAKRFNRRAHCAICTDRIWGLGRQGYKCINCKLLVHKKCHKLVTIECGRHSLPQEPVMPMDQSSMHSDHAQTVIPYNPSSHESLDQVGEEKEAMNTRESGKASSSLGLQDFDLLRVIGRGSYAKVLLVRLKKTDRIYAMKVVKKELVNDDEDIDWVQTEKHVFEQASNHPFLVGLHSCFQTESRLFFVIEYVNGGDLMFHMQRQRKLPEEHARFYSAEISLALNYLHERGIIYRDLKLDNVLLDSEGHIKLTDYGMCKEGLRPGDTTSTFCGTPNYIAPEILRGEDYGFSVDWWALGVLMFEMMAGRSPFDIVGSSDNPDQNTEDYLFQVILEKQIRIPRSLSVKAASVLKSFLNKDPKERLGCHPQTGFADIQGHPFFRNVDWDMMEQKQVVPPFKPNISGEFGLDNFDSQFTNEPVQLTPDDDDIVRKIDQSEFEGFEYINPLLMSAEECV
The experiment in a line: PKCι IC50 IMAP assay, full-length PKCι at 150 μM ATP. The note with it: read-out: IC50 in IMAP assay against full length PKCi at 150 μM ATP. The format is biochemical. The method, boiled down:
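Phosphorylation of a 5FAM-tagged PKCε pseudopeptide-derived substrate (100 nM) by full-length recombinant human PKCι was monitored by IMAP fluorescence polarisation. ATP was held at 150 μM, five times its apparent KM, with 60 min room-temperature incubation.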

Regarding `N[C@H]1CCC[C@H]1C(=O)Nc1cc(-c2nc(N3CCNCC3)c3c(C4CC4)cncc3n2)ccn1` [Example 561, (1R,2S)-2-Amino-cyclopentane-carboxylic acid [4-(5-cyclopropyl-4-piperazin-1-yl-pyrido[3,4-d]pyrimidin-2-yl)-pyridin-2-yl]-amide], the IC50 is below 100 nM.
The same measure for `COc1cncc2nc(-c3ccnc(Nc4cc(C#N)ccn4)c3)nc(N3CCN(C)CC3)c12` [Example 397, 2-{4-[5-Methoxy-4-(4-methyl-piperazin-1-yl)-pyrido[3,4-d]pyrimidin-2-yl]-pyridin-2-ylamino}-isonicotinonitrile]: 100 to 1000 nM.
As for `CC(C)c1ccc(F)c(Nc2cc(-c3nc(N4CCNCC4)c4c(C5CC5)cncc4n3)ccn2)c1` [Example 716, [4-(5-Cyclopropyl-4-piperazin-1-yl-pyrido[3,4-d]pyrimidin-2-yl)-pyridin-2-yl]-(2-fluoro-5-isopropyl-phenyl)-amine], the IC50 is below 100 nM.
The value for `Fc1cc(Cl)cnc1Nc1cc(-c2nc(N3CCNCC3)c3c(C4CC4)cncc3n2)ccn1` [Example 2171, (5-Chloro-3-fluoro-pyridin-2-yl)-[4-(5-cyclopropyl-4-piperazin-1-yl-pyrido[3,4-d]pyrimidin-2-yl)-pyridin-2-yl]-amine] was below 100 nM; that for `C[C@H]1CN(c2nc(-c3ccnc(Nc4nc(F)c(F)cc4F)c3)nc3cncc(C4CC4)c23)CCN1` [Example 830, {4-[5-Cyclopropyl-4-((S)-3-methyl-piperazin-1-yl)-pyrido[3,4-d]pyrimidin-2-yl]-pyridin-2-yl}-(3,5,6-trifluoro-pyridin-2-yl)-amine] was 1000 to 10000 nM.
As for `C[C@@H](Nc1cc(-c2nc(N3CCNCC3)c3c(C4CC4)cncc3n2)ccn1)c1cccc2ccccc12` [Example 2165, [4-(5-Cyclopropyl-4-piperazin-1-yl-pyrido[3,4-d]pyrimidin-2-yl)-pyridin-2-yl]-((R)-1-naphthalen-1-yl-ethyl)-amine], the IC50 was below 100 nM.
The value for `CC(C)(c1ccccc1)c1cc2c(-c3nc(N4CCNCC4)c4c(C5CC5)cncc4n3)ccnc2[nH]1` [Example 2086, 5-Cyclopropyl-2-[2-(1-methyl-1-phenyl-ethyl)-1H-pyrrolo[2,3-b]pyridin-4-yl]-4-piperazin-1-yl-pyrido[3,4-d]pyrimidine] was below 100 nM; that for `Cn1ccc(Nc2cc(-c3nc(N4CCN[C@@H](C(F)(F)F)C4)c4c(C5CC5)cncc4n3)ccn2)n1` [Example 2053, {4-[5-Cyclopropyl-4-((R)-3-trifluoromethyl-piperazin-1-yl)-pyrido[3,4-d]pyrimidin-2-yl]-pyridin-2-yl}-(1-methyl-1H-pyrazol-3-yl)-amine] was below 100 nM; that for `Fc1cc(F)nc(Nc2cc(-c3nc(N4CCNCC4)c4c(C5CCC5)cncc4n3)ccn2)c1` [Example 2011, [4-(5-Cyclobutyl-4-piperazin-1-yl-pyrido[3,4-d]pyrimidin-2-yl)-pyridin-2-yl]-(4,6-difluoro-pyridin-2-yl)-amine] was below 100 nM.
The value for `NC(=O)CN[C@H](CNc1nc(-c2ccncc2)nc2cnccc12)Cc1ccccc1` [Example 82, 2-{[(2S)-1-phenyl-3-{[2-(pyridin-4-yl)pyrido[3,4-d]pyrimidin-4-yl]amino}propan-2-yl]amino}acetamide] was 1000 to 10000 nM.
The value for `c1cc(-c2nc(N3CCC4NCC[C@H]4C3)c3ccncc3n2)ccn1` (stereo partly drawn) [Example 67, 4-{4-[(3aS)-octahydro-1H-pyrrolo[3,2-c]-pyridin-5-yl]-pyrido[3,4-d]-pyrimidin-2-yl}-pyridine] was 10000 to 40000 nM; that for `FC(F)(F)c1ncccc1Nc1cc(-c2nc(N3CCNCC3)c3c(C4CC4)cncc3n2)ccn1` [Example 536, [4-(5-Cyclopropyl-4-piperazin-1-yl-pyrido[3,4-d]pyrimidin-2-yl)-pyridin-2-yl]-(2-trifluoromethyl-pyridin-3-yl)-amine] was 1000 to 10000 nM; that for `CN1CCC(N(C)c2nc(-c3ccnc(Nc4c(F)cccc4F)c3)nc3cncc(C4CC4)c23)CC1` [Example 2083, {5-Cyclopropyl-2-[2-(2,6-difluoro-phenylamino)-pyridin-4-yl]-pyrido[3,4-d]pyrimidin-4-yl}-methyl-(1-methyl-piperidin-4-yl)-amine] was below 100 nM.
`COc1cncc2nc(-c3ccncc3)nc(N3CCC(N)(C(N)=O)C3)c12` (stereo not shown) [Example 152, 3-Amino-1-(5-methoxy-2-pyridin-4-yl-pyrido[3,4-d]pyrimidin-4-yl)-pyrrolidine-3-carboxylic acid amide]: the IC50 was in the range of 1000 to 10000 nM.
On to `FC1CCC(Nc2cc(-c3nc(N4CCNCC4)c4c(C5CC5)cncc4n3)ccn2)CC1` (stereo not shown) [Example 601, [4-(5-Cyclopropyl-4-piperazin-1-yl-pyrido[3,4-d]pyrimidin-2-yl)-pyridin-2-yl]-(4-fluorocyclohexyl)-amine], for which the IC50 was below 100 nM.
The value for `Clc1ccnc(Nc2cc(-c3nc(N[C@@H]4CCNC4)c4ccncc4n3)ccn2)c1` [Example 339, {2-[2-(4-Chloro-pyridin-2-ylamino)-pyridin-4-yl]-pyrido[3,4-d]pyrimidin-4-yl}-(R)-pyrrolidin-3-yl-amine] was below 100 nM; that for `Fc1ccc(Nc2cc(-c3nc(N4CCNCC4)c4c(C5CC5)cncc4n3)ccn2)cn1` [Example 672, [4-(5-Cyclopropyl-4-piperazin-1-yl-pyrido[3,4-d]pyrimidin-2-yl)-pyridin-2-yl]-(6-fluoro-pyridin-3-yl)-amine] was below 100 nM; that for `Cc1ccc(C(F)(F)F)cc1Nc1cc(-c2nc(N3CCNCC3)c3c(C4CC4)cncc3n2)ccn1` [Example 554, [4-(5-Cyclopropyl-4-piperazin-1-yl-pyrido[3,4-d]pyrimidin-2-yl)-pyridin-2-yl]-(2-methyl-5-trifluoromethyl-phenyl)-amine] was 100 to 1000 nM.
The same measure for `N[C@H](CNc1nc(-c2ccncc2)nc2c(Cl)nccc12)Cc1ccccc1` [Example 11, N-[(2S)-2-amino-3-phenylpropyl]-8-chloro-2-(pyridin-4-yl)pyrido[3,4-d]-pyrimidin-4-amine]: below 100 nM; for `Fc1cccc(F)c1Nc1cc(-c2nc(N3CCNCC3)c3c(C(F)(F)F)cncc3n2)ccn1` [Example 2193, (2,6-Difluoro-phenyl)-[4-(4-piperazin-1-yl-5-trifluoromethyl-pyrido[3,4-d]pyrimidin-2-yl)-pyridin-2-yl]-amine]: below 100 nM; for `c1ncc2nc(N3CCOCC3)nc(N3CCNCC3)c2c1C1CC1` [Example 1016, 5-Cyclopropyl-2-morpholin-4-yl-4-piperazin-1-yl-pyrido[3,4-d]pyrimidine]: below 100 nM.
The value for `Cn1nccc1-c1nccc2c(NC[C@@H](N)Cc3ccccc3)nc(-c3ccncc3)nc12` [Example 104, N-[(2S)-2-amino-3-phenylpropyl]-8-(1-methyl-1H-pyrazol-5-yl)-2-(pyridin-4-yl)-pyrido[3,4-d]-pyrimidin-4-amine] was 1000 to 10000 nM; that for `Clc1cccc(Nc2cc(-c3nc(N4CCNCC4)c4c(C5CC5)cncc4n3)ccn2)n1` [Example 514, (6-Chloro-pyridin-2-yl)-[4-(5-cyclopropyl-4-piperazin-1-yl-pyrido[3,4-d]pyrimidin-2-yl)-pyridin-2-yl]-amine] was below 100 nM.
As to `CN(C)c1ccc(Nc2cc(-c3nc(N4CCNCC4)c4c(C5CC5)cncc4n3)ccn2)cn1` [Example 551, N^5-[4-(5-Cyclopropyl-4-piperazin-1-yl-pyrido[3,4-d]pyrimidin-2-yl)-pyridin-2-yl]-N^2,N^2-dimethyl-pyridine-2,5-diamine], the IC50 was below 100 nM.
The value for `N#Cc1ccnc(Nc2cc(-c3nc(N4CCN5C(=O)OCC5C4)c4c(C5CC5)cncc4n3)ccn2)c1` (stereo not shown) [Example 533, 2-{4-[5-Cyclopropyl-4-(3-oxo-tetrahydro-oxazolo[3,4-a]pyrazin-7-yl)-pyrido[3,4-d]pyrimidin-2-yl]-pyridin-2-ylamino}-isonicotinonitrile] was 100 to 1000 nM.
The same measure for `Cc1ccc(F)c(Nc2cc(-c3nc(N4CCNCC4)c4c(C5CC5)cncc4n3)ccn2)c1` [Example 504, [4-(5-Cyclopropyl-4-piperazin-1-yl-pyrido[3,4-d]pyrimidin-2-yl)-pyridin-2-yl]-(2-fluoro-5-methyl-phenyl)-amine]: below 100 nM.
Consider `N#Cc1ccnc2c1ccn2-c1cc(-c2nc(N[C@@H]3CCNC3)c3ccncc3n2)ccn1` [Example 328, 1-{4-[4-((R)-Pyrrolidin-3-ylamino)-pyrido[3,4-d]pyrimidin-2-yl]-pyridin-2-yl}-1H-pyrrolo[2,3-b]pyridine-4-carbonitrile], for which the IC50 lay in the range of 1000 to 10000 nM.
As to `Fc1ccc(Nc2cc(-c3nc(N4CCNCC4)c4c(C5CC5)cncc4n3)ccn2)cc1F` [Example 599, [4-(5-Cyclopropyl-4-piperazin-1-yl-pyrido[3,4-d]pyrimidin-2-yl)-pyridin-2-yl]-(3,4-difluoro-phenyl)-amine], the IC50 is below 100 nM.
